Test results from ChEMBL document CHEMBL6087398, “Natural phenol carbamates: Selective BuChE/FAAH dual inhibitors show neuroprotection in an Alzheimer's disease mouse model” (Eur J Med Chem, 2025).
Active and inactive are the calls of the source. The calls are words filed in the database; no cut-off is given here.

Assays:
[1] = molecular target: T1, Fatty-acid amide hydrolase 1 (Homo sapiens, UniProt O00519); experiment: Inhibition of human FAAH
T1 sequence (O00519 whole entry): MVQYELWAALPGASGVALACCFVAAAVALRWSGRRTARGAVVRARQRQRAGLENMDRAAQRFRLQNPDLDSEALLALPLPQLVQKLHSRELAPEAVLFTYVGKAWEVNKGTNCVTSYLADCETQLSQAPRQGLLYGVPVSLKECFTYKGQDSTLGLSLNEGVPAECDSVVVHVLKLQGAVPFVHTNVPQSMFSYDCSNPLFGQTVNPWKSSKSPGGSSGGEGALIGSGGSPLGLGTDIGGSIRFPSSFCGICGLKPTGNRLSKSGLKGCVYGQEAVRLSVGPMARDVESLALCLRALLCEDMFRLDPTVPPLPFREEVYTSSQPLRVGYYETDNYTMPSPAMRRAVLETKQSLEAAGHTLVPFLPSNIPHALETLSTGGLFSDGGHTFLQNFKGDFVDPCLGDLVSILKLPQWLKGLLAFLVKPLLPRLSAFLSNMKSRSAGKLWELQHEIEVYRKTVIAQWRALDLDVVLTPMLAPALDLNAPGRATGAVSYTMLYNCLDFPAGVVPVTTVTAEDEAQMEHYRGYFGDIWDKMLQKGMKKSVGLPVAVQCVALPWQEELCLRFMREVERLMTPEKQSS

Cholinesterase [2] = molecular target: Cholinesterase (Equus caballus, UniProt P81908); experiment: Inhibition of equine BuChE using butyrylthiocholine iodide as substrate preincubated with enzyme for 20 mins followed by substrate addition and measured after 20 mins by Ellman's method
Sequence of Cholinesterase (Equus caballus, UniProt P81908) (P81908 whole entry): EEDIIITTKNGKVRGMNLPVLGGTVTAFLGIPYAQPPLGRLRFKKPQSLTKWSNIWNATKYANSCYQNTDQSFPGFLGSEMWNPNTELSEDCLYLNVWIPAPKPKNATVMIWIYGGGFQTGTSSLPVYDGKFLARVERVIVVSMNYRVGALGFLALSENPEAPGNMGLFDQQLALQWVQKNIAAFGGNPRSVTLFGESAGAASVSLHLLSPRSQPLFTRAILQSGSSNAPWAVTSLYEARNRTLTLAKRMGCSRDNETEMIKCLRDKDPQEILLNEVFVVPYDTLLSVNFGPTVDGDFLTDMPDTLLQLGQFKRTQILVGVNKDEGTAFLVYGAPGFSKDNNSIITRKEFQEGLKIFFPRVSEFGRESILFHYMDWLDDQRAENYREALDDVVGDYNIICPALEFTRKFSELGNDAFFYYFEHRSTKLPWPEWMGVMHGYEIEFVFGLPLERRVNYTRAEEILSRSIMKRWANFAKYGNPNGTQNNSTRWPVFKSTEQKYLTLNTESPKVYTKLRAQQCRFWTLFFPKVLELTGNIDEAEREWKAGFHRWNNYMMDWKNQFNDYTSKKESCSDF

in vitro = details: PAMPA, pH 7.4
Description: Permeability of the compound in PBS at pH 7.4 incubated for 18 hrs by PAMPA-BBB assay

BV-2 [3] = experiment: Induction of microglial polarization to M2 phenotype in mouse BV-2 cells assessed as increase in CD206 expression incubated for 24 hrs by Western blotting analysis; format: functional, cell-based; details: dose 0-10 µM
L02 [4] = experiment: Cytotoxicity against human L02 cells assessed as reduction in cell viability at 12.5 uM incubated for 24 hrs by MTT assay; format: toxicity, cell-based; details: l02, 24 h
L02 [5] = experiment: Cytotoxicity against human L02 cells assessed as reduction in cell viability at 6.25 to 50 uM incubated for 24 hrs by MTT assay relative to control; format: toxicity, cell-based; details: l02, 24 h, dose 6.25-50 µM
PC-12 [6] = experiment: Neuroprotective activity against H2O2 induced rat PC12 cells assessed as increase in cell viability at 50 uM measured after 24 hrs by MTT assay relative to control; format: functional
BV-2 [7] = experiment: Immunomodulatory activity in mouse BV-2 cells assessed as decrease in LPS induced IL-1 beta release incubated for 24 hrs by Western blotting analysis; format: functional, cell-based; details: dose 0-10 µM
Cholinesterase [8] = molecular target: T2, Cholinesterase (Homo sapiens, UniProt P06276); experiment: Inhibition of human BuChE using butyrylthiocholine iodide as substrate incubated for 5 mins
T2 sequence (P06276 whole entry): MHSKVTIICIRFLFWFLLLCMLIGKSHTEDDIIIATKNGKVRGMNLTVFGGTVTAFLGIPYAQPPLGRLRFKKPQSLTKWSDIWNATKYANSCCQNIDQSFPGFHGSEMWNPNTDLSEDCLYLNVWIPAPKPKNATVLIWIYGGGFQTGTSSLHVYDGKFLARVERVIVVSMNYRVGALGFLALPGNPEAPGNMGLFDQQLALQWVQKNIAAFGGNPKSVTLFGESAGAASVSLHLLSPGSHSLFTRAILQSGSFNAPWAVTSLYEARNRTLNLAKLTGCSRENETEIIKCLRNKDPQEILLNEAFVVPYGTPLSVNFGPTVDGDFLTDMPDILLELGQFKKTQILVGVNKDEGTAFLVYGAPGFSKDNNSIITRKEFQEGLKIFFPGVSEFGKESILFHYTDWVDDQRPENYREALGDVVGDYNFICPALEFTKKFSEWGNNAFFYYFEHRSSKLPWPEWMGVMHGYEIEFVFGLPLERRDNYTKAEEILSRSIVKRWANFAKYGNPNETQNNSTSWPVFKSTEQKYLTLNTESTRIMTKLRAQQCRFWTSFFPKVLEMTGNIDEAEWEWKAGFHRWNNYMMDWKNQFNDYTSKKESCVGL

Cholinesterase [9] = molecular target: T2, Cholinesterase; experiment: Binding affinity to human BuChE (unknown origin) assessed as carbamolyation rate at 100 to 1000 nM incubated for 60 mins; details: dose 100-1000 nM
Mus musculus [10] = experiment: Antialzheimer activity against amyloid beta (1 to 42 residues) induced ICR male mouse model assessed as prevention in cognitive dysfunction at 10 mg/kg, po administered for 12 days by Morris water maze test; format: functional, organism-based; details: time 12.0 day
BV-2 [11] = experiment: Induction of microglial polarization to M2 phenotype in mouse BV-2 cells assessed as reduction in iNOS activity incubated for 24 hrs by Western blotting analysis; format: functional, cell-based
Cholinesterase [12] = molecular target: T2, Cholinesterase; experiment: Binding affinity to human BuChE (unknown origin) assessed as decarbamolyation rate at 100 to 1000 nM incubated for 60 mins; details: dose 100-1000 nM
BV-2 [13] = experiment: Induction of microglial polarization to M2 phenotype in mouse BV-2 cells assessed as increase in Arg-1 expression incubated for 24 hrs by Western blotting analysis; format: functional, cell-based; details: dose 0-10 µM
[14] = Neurotoxicity against mouse BV-2 cells assessed as improvement in cell morphological changes at 20 uM by inverted microscopic analysis; format: toxicity, cell-based; details: bv-2, 20 µM
[15] = molecular target: T1, Fatty-acid amide hydrolase 1; experiment: Inhibition of human FAAH using arachidonoyl amide as substrate incubated for 30 mins by fluorescence-based cayman assay
PC-12 [16] = experiment: Neuroprotective activity against H2O2 induced rat PC12 cells assessed as cell viability measured after 24 hrs by MTT assay; format: functional, cell-based; details: dose 6.25-50 µM
[17] = Toxicity in amyloid beta (1 to 42 residues) induced ICR male mouse model assessed as effect on body weight at 10 mg/kg, po administered for 12 days and measured daily; format: organism-based; details: in vivo, 288 h, time 12 day
BV-2 [18] = experiment: Immunomodulatory activity in mouse BV-2 cells assessed as decrease in LPS induced iNOS expression at 10 uM incubated for 24 hrs by Western blotting analysis; format: functional, cell-based
[19] = molecular target: Acetylcholinesterase (Electrophorus electricus) (UniProt O42275); experiment: Inhibition of electric eel AChE using acetylthiocholine iodide as substrate preincubated with enzyme for 20 mins followed by substrate addition and measured after 20 mins by Ellman's method; design: concentration or dose not given beside the values; details: time 40.0 min
Sequence of Acetylcholinesterase (Electrophorus electricus) (O42275 24-633 limits assumed): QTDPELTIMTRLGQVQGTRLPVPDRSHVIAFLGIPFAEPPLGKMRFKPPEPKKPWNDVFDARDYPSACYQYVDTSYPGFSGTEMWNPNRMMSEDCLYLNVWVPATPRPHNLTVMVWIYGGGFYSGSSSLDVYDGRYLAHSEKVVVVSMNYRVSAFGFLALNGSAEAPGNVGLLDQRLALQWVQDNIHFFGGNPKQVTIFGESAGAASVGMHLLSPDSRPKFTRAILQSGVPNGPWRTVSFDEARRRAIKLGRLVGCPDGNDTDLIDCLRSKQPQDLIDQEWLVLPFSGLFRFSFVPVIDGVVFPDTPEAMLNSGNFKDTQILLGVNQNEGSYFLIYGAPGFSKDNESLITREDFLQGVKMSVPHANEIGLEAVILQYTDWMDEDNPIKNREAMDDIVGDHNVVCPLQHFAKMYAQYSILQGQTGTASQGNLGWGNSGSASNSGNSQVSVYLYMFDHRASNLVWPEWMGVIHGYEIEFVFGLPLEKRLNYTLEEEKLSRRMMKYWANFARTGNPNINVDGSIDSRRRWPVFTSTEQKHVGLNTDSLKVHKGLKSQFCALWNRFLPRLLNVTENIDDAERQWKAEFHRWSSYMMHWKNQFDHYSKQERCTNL

[20] = Toxicity in amyloid beta (1 to 42 residues) induced ICR male mouse model assessed as hepatocyte fatty degeneration at 10 mg/kg, po administered for 12 days and measured on day 15 by H and E staining based immunohistochemistry analysis; format: organism-based; details: in vivo, 288 h, time 12 day
[21] = molecular target: Acetylcholinesterase (Homo sapiens) (UniProt P22303); experiment: Inhibition of recombinant human AChE using acetylthiocholine iodide as substrate incubated for 5 mins relative to control
Sequence of Acetylcholinesterase (Homo sapiens) (P22303 whole entry): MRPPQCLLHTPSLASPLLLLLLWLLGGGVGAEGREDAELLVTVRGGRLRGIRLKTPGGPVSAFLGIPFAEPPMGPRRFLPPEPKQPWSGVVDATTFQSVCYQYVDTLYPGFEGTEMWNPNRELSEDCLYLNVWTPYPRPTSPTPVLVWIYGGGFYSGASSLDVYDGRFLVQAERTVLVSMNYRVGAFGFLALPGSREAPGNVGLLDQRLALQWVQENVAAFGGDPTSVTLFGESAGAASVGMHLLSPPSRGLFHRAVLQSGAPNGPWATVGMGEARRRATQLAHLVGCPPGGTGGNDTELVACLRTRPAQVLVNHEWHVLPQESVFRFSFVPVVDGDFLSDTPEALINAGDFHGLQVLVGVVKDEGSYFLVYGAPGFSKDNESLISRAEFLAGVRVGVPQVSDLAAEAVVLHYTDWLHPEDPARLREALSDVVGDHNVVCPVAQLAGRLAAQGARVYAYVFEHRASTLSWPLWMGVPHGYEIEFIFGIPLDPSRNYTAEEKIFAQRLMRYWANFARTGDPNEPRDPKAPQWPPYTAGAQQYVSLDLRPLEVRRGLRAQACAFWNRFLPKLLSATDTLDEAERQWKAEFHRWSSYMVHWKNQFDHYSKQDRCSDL

Cholinesterase [22] = molecular target: T2, Cholinesterase; experiment: Binding affinity to human BuChE (unknown origin) assessed as overall carbamolyation rate at 100 to 1000 nM incubated for 60 mins
Cholinesterase [23] = molecular target: T2, Cholinesterase; experiment: Binding affinity to human BuChE (unknown origin) assessed as equilibrium dissociation constant at 100 to 1000 nM incubated for 60 mins
Mus musculus [24] = experiment: Antialzheimer activity against amyloid beta (1 to 42 residues) induced ICR male mouse model assessed as reduction in amyloid beta (1 to 42 residues) at 10 mg/kg, po administered for 12 days by ELISA relative to control; format: functional; design: scale not given: the % may be the effect or the level left; details: time 12 day
[25] = Toxicity in amyloid beta (1 to 42 residues) induced ICR male mouse model assessed as pericentral necrosis at 10 mg/kg, po administered for 12 days and measured on day 15 by H and E staining based immunohistochemistry analysis; format: organism-based; details: in vivo, 288 h, time 12 day
Mus musculus [26] = experiment: Antialzheimer activity against amyloid beta (1 to 42 residues) induced ICR male mouse model assessed as increase in neuron density in hippocampal CA1 region at 10 mg/kg, po administered for 12 days and measured on day 15 by H and E staining based analysis; format: functional, organism-based; details: time 12.0 day
BV-2 [27] = experiment: Induction of microglial polarization to M2 phenotype in mouse BV-2 cells assessed as increase in Arg-1 activity incubated for 24 hrs by Western blotting analysis; format: functional, cell-based
[28] = Neurotoxicity against mouse BV-2 cells assessed as reduction in cell viability at 25 to 50 uM incubated for 24 hrs by MTT assay; format: toxicity, cell-based; details: bv-2, 24 h, dose 25-50 µM
BV-2 [29] = experiment: Immunomodulatory activity in mouse BV-2 cells assessed as decrease in LPS induced IL-1 beta release at 10 uM incubated for 24 hrs by Western blotting analysis; format: functional, cell-based

## CN(C(=O)n1cnc(-c2ccc[n+]([O-])c2)c1)C1CCCCC1
[1]
  IC50: 7.5 µM

## COc1ccc(C(C)=O)c(OC(=O)N(C)Cc2ccc(F)cc2)c1
Cholinesterase [2]
  IC50: 12 nM
In vitro
  Papp at 18 h: 16.4 ×10⁻⁶ cm/s
BV-2 [3]
  Activity: Dose-dependent-effect
L02 [4]
  Activity: Non-toxic
L02 [5]
  Activity: 88.6%
PC-12 [6]
  Activity: 43%
BV-2 [7]
  Activity: Dose-dependent-effect
Cholinesterase [8]
  IC50: 81 nM
Cholinesterase [9]
  K: 2.27 min⁻¹
Mus musculus [10]
  Activity: Active
BV-2 [11]
  Activity: Active
Cholinesterase [12]
  K: 2.83 min⁻¹
BV-2 [13]
  Activity: Dose-dependent-effect
[14]
  Activity: Non-toxic
[15]
  IC50: 400 nM
PC-12 [16]
  Activity: Dose-dependent-effect
[17]
  Activity: Non-toxic
BV-2 [18]
  Activity: Active
[19]
  inhibition: 53%
[20]
  Activity: Non-toxic
[21]
  inhibition: 10.4%
Cholinesterase [22]
  Ki: 2.8 10^-3/uM/min
Cholinesterase [23]
  Kd: 2110 nM
Mus musculus [24]
  Activity: 8.8%
[25]
  Activity: Non-toxic
Mus musculus [26]
  Activity: Active
BV-2 [27]
  Activity: Active
[28]
  Activity: Non-toxic
BV-2 [29]
  Activity: Active
